Experimental data published in article PMC9822041 (Molecules, 2022).
“And” between values parts separate entries of the source, which are not always exact repeats. Identical values can stand only once. Like-named read-outs stand apart in the source and are kept apart here.

Assays:
DYRK1A = conditions: cited from earlier work
hCLK1 = hCLK1 (Homo sapiens, UniProt P49759); assay: CLK1 Human CMGC Kinase Enzymatic Radiometric Assay [Km ATP]; type: biochemical
hDYRK1A = hDYRK1A (Homo sapiens, UniProt Q13627); assay: DYRK1A Human CMGC Kinase Enzymatic Radiometric Assay [Km ATP]; type: biochemical
CLK1 = system: CLK1; parameters: method as in PMID 20981014, PMID 15010457; conditions: cited from earlier work
[1] = In vitro DPPH radical scavenging assay; conditions: methanol, 37 °C, 40 min, absorbance at 517 nm
Description: Finally, the aptitude of 1p to act as a free radical scavenger was assessed using the rapid, inexpensive and widely used DPPH^• (2,2-diphenyl-1-picrylhydrazyl) scavenging method. Dark purple DPPH^• is a stable free radical that can accept an electron or hydrogen to become a stable diamagnetic molecule with the loss of violet color. […] Thus, this novel class of hDYRK1A/hCLK1 inhibitors are all the more interesting that they may also potentially display an additional antioxidant activity to combat oxidative stress in AD.
Figure 1. In vitro stability of 1p in various non-oxidazing and oxidazing media.
III – In vitro DPPH radical scavenging assay
DPPH radical scavenging activity was determined according to the method described by Blois.5 0.5 mL of 0.1 mM DPPH radical solution in methanol was mixed with 1.5 mL of various concentrations in methanol of 1p. The mixture was then thoroughly vortexed for 5s and each antioxidant-DPPH radical reaction mixture is kept in the test tubes in the dark at 37 °C for 40 min (time point by which all reactions should have reached steady state) and transferred to a cuvette for absorbance measurement at 517 nm. For the baseline control, 1.5 mL of methanol was used. […] Percentage of inhibition was calculated using the equation [(A0−A1)/A0] × 100 where A0 was the absorbance of the control and A1 was the absorbance in the presence of the compound. […]

in vitro = conditions: PAMPA, pH 7.4
[2] = Solubility of 1p in PBS (HPLC); type: physicochemical; conditions: aqueous buffer, kinetic from dmso stock; PBS pH 7.4, 24 h at 20 °C; read-out: Experimental solubility in PBS
[3] = In vitro stability/oxidation of 1p to 2p in PBS, NAD+, H2O2 and riboflavin solutions (HPLC-UV); type: physicochemical; conditions: 25 μM 1p
[4] = radiometric assay, Km ATP, read-out: IC50 hCLK1
[5] = radiometric assay, Km ATP, read-out: IC50 hDYRK1A
[6] = compared with N-methyl dihydroquinoline 1h
[7] = quinolinium salt and quinoline intermediates, read-out: IC50 hCLK1 (synthetic intermediates)
[8] = quinolinium salt and quinoline intermediates, read-out: IC50 hDYRK1A (synthetic intermediates)

Sequence of hCLK1 (P49759 whole entry): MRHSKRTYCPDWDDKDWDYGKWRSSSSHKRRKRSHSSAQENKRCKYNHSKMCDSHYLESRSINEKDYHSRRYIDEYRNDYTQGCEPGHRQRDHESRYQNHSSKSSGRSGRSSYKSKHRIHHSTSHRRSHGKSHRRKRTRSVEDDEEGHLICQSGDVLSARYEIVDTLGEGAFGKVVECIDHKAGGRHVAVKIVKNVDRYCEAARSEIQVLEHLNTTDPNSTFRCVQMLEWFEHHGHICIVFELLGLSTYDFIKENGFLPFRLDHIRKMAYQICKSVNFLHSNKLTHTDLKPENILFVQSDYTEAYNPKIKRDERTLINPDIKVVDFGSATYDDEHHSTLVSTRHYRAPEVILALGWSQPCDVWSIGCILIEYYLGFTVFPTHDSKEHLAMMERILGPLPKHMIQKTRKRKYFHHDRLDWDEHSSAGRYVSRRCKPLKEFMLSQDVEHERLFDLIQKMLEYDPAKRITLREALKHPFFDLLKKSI

IC50 (hCLK1; [4]) | melting point | IC50 (hDYRK1A; [5]) | SMILES | also measured
> 10 µM | 141 to 142 °C | > 10 µM | CC(=O)C1=CN(C)c2cc(C(F)(F)F)ccc2C1 [Compound 1b, 1-(1-Methyl-7-(trifluoromethyl)-1,4-dihydroquinolin-3-yl)ethanone] | –
> 10 µM | – | > 10 µM | COc1ccc2c(c1)N(C)C=C(C(=O)N(C)OC)C2 [Compound 1m, N,7-Dimethoxy-N,1-dimethyl-1,4-dihydroquinoline-3-carboxamide] | –
0.122 ± 0.012 µM | 92 to 93 °C | 1.11 ± 0.203 µM | COc1ccc2c(c1)N(CCc1ccccc1)C=C(C(C)=O)C2 [Compound 1o, 1-(7-Methoxy-1-phenethyl-1,4-dihydroquinolin-3-yl)ethanone] | –
0.595 ± 0.063 µM | 129 to 130 °C | 3.02 ± 0.15 µM | COc1ccc2c(c1)N(Cc1ccccc1)C=C(C(C)=O)C2 [Compound 1n, 1-(1-Benzyl-7-methoxy-1,4-dihydroquinolin-3-yl)ethanone] | –
3.16 ± 0.525 µM | 93 to 94 °C | > 10 µM | CCOC(=O)C1=CN(C)c2cc(OC)ccc2C1 [Compound 1k, Ethyl 7-methoxy-1-methyl-1,4-dihydroquinoline-3-carboxylate] | –
> 10 µM | 152 to 153 °C | > 10 µM | CC(=O)C1=CN(C)c2cc3c(cc2C1)OCO3 [Compound 1g, 1-(5-Methyl-5,8-dihydro-[1,3]dioxolo[4,5-g]quinolin-7-yl)ethanone] | –
> 10 µM | 235 to 236 °C | > 10 µM | COc1cc2c(cc1OC)N(C)C=C(C(C)=O)C2 [Compound 1f, 1-(6,7-Dimethoxy-1-methyl-1,4-dihydroquinolin-3-yl)ethanone] | –
1.46 ± 0.253 µM | 95 to 96 °C | > 10 µM | COC(=O)C1=CN(C)c2cc(OC)ccc2C1 [Compound 1j, Methyl 7-methoxy-1-methyl-1,4-dihydroquinoline-3-carboxylate] | –
– | 129 to 130 °C | – | COc1ccc2cc(C(C)=O)cnc2c1 [Compound 6h, 3-Acetyl-7-methoxyquinoline] | IC50 (hCLK1; [7]): > 10 µM; IC50 (hDYRK1A; [8]): > 10 µM
> 10 µM | 126 to 127 °C | > 10 µM | CC(=O)C1=CN(C)c2cc(N(C)C)ccc2C1 [Compound 1c, 1-(7-(Dimethylamino)-1-methyl-1,4-dihydroquinolin-3-yl)ethanone] | –

More lines, now with the values behind:

SMILES | IC50 (hCLK1; [4]) | melting point | IC50 (hDYRK1A; [5]) | also measured
CCN1/C(=C/C(C)=O)Sc2ccc(OC(C)=O)cc21 [ProINDY] | – | – | – | DYRK1A % inhibition (DYRK1A; at 10 μM): 26.1%
COc1ccc2c(c1)N(C)C=C(C#N)C2 [Compound 1i, 7-Methoxy-1-methyl-1,4-dihydroquinoline-3-carbonitrile] | > 10 µM | 127 to 128 °C | > 10 µM | –
CC(=O)C1=CN(C)c2ccccc2C1 [Compound 1a, 1-(1-Methyl-1,4-dihydroquinolin-3-yl)ethanone] | > 10 µM | – | > 10 µM | –
CCC[n+]1cc(C(C)=O)cc2ccc(OC)cc21.[Br-] | – | 183 to 184 °C | – | –
CC(=O)C1=CN(C)c2ccc(Cl)cc2C1 [Compound 1e, 1-(6-Chloro-1-methyl-1,4-dihydroquinolin-3-yl)ethanone] | > 10 µM | 124 to 125 °C | > 10 µM | –
COc1ccc2c(c1)N(C)C=C(C(=O)N(C)C)C2 [Compound 1l, 7-Methoxy-N,N,1-trimethyl-1,4-dihydroquinoline-3-carboxamide] | > 10 µM | 219 to 220 °C | > 10 µM | –
CCN1/C(=C/C(C)=O)Sc2ccc(O)cc21 [INDY, (Z)-1-(3-Ethyl-5-hydroxy-2(3H)-benzothiazolylidene)-2-propanone] | – | – | – | CLK1 % inhibition (CLK1; at 10 μM): 99%
CCCN1C=C(C(C)=O)Cc2ccc(OC)cc21 [Compound 1p, 1-(7-Methoxy-1-propyl-1,4-dihydroquinolin-3-yl)ethanone] | 0.047 ± 0.013 µM | 98 to 99 °C | 0.153 ± 0.044 µM | fold more potent than 1h toward hCLK1 (hCLK1; [6]): 8 fold; fold more potent than 1h toward hDYRK1A (hDYRK1A; [6]): 2.5 fold; EC50 [1]: 128 µM; Papp at 4 h, 100 µM (in vitro): 20 ± 0.9 ×10⁻⁶ cm/s; solubility at 24 h [2]: 600 µM and 147 µg/mL; % formed 2p after incubation at 37 °C ([3]; 0.1% H2O2 in PBS, after 3.5 h): 13%; % formed 2p after incubation at 37 °C ([3]; 0.1% H2O2 in PBS, after 24 h): 53%; % formed 2p after incubation at 37 °C ([3]; 0.1% riboflavin in PBS, after 3.5 h (in less than 3.5 h)): 100%; % formed 2p after incubation at 37 °C ([3]; 0.2% NAD+ in PBS, after 3.5 h): 5%; % formed 2p after incubation at 37 °C ([3]; 0.2% NAD+ in PBS, after 24 h): 16%; % formed 2p after incubation at 37 °C ([3]; 2% NAD+ in PBS, after 3.5 h): 24%; % formed 2p after incubation at 37 °C ([3]; 2% NAD+ in PBS, after 24 h): 77%; % formed 2p after incubation at 37 °C ([3]; PBS pH 7.4, after 3.5 h): 3%; % formed 2p after incubation at 37 °C ([3]; PBS pH 7.4, after 24 h): 8%
COc1ccc2cc(C(C)=O)c[n+](C)c2c1.[I-] [Compound 2h, 3-Acetyl-7-methoxy-1-methylquinolin-1-ium iodide] | – | 223 to 224 °C | – | IC50 (hCLK1; [7]): > 10 µM; IC50 (hDYRK1A; [8]): > 10 µM
COc1ccc2c(c1)N(C)C=C(C(C)=O)C2 [Compound 1h, 1-(7-Methoxy-1-methyl-1,4-dihydroquinolin-3-yl)ethanone] | 0.377 ± 0.158 µM | 99 to 100 °C | 0.385 ± 0.13 µM | –
CC(=O)C1=CN(C)c2cc(Br)ccc2C1 [Compound 1d, 1-(7-Bromo-1-methyl-1,4-dihydroquinolin-3-yl)ethanone] | > 10 µM | 179 to 180 °C | > 10 µM | –
